Measurements taken from patent US8993756B2 (Merck Sharp & Dohme Corp., priority 2011, dated 2015).

Key:
JAK3 = JAK3 (Homo sapiens (Human), UniProt P52333); test: Jak Biochemical HTRF Assay (JAK3); settings: recombinant GST-tagged catalytic domain, [ATP] 2.9 μM
JAK2 = JAK2 (Homo sapiens (Human), UniProt O60674); test: Jak Biochemical HTRF Assay (JAK2); settings: recombinant GST-tagged catalytic domain, [ATP] 8.5 μM
JAK2, sequence (O60674 849-1124): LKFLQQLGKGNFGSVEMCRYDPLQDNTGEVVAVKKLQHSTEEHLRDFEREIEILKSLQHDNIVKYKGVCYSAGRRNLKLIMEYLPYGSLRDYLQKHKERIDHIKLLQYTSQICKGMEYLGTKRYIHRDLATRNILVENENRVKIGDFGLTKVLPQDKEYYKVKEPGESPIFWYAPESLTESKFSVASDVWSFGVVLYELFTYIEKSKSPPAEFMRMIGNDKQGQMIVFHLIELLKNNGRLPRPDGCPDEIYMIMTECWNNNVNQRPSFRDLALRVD

JAK3, sequence (P52333 822-1111): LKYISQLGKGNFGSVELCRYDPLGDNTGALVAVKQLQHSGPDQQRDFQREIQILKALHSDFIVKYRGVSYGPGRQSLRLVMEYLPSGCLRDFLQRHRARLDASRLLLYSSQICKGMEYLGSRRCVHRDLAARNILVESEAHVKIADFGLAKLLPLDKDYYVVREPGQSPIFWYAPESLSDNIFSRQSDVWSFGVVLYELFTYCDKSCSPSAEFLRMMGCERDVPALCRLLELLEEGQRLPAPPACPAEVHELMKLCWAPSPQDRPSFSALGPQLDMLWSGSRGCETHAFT

SMILES | IC50 (JAK3; given as range class) | IC50 (JAK2; given as range class) | IC50 (JAK3) | IC50 (JAK2)
CCOC(=O)c1c[nH]c2ncnc(-c3cccc(NC(=O)/C=C(/C)C(F)(F)F)c3)c12 [Example 5-34, ethyl 4-(3-{[(2Z)-4,4,4-trifluoro-3-methylbut-2-enoyl]amino}phenyl)-7H-pyrrolo[2,3-d]pyrimidine-5-carboxylate] | – | – | 1.9 nM | > 1500 nM
CCOC(=O)c1c[nH]c2ncnc(-c3cccc(NC(=O)C4=CC(=O)CC4)c3)c12 [Example 5-36, ethyl 4-(3-{[(3-oxocyclopent-1-en-1-yl)carbonyl]amino}phenyl)-7H-pyrrolo[2,3-d]pyrimidine-5-carboxylate] | – | – | 0.14 nM | > 1500 nM
CCOC(=O)c1c[nH]c2ncnc(-c3cccc(NC(=O)/C=C/c4nccs4)c3)c12 [Example 5-39, ethyl 4-(3-{[(2E)-3-(1,3-thiazol-2-yl)prop-2-enoyl]amino}phenyl)-7H-pyrrolo[2,3-d]pyrimidine-5-carboxylate] | – | – | 3.9 nM | 496 nM
C=C(CN1CCOCC1)C(=O)Nc1cccc(-c2ncnc3[nH]cc(C(=O)OCC)c23)c1 [Example 5-41, ethyl 4-(3-{[2-(morpholin-4-ylmethyl)acryloyl]amino}phenyl)-7H-pyrrolo[2,3-d]pyrimidine-5-carboxylate] | – | – | 0.66 nM | > 1500 nM
CCOC(=O)c1c[nH]c2ncnc(-c3cccc(NC(=O)/C=C/c4ccc(C(F)(F)F)cc4)c3)c12 [Example 5-44, ethyl 4-[3-({(2E)-3-[4-(trifluoromethyl)phenyl]prop-2-enoyl}amino)phenyl]-7H-pyrrolo[2,3-d]pyrimidine-5-carboxylate] | 10 to 500 nM | > 500 nM | – | –
C=C(COC)C(=O)Nc1cccc(-c2ncnc3[nH]cc(C(=O)OCC)c23)c1 [Example 5-45, ethyl 4-(3-{[2-(methoxymethyl)acryloyl]amino}phenyl)-7H-pyrrolo[2,3-d]pyrimidine-5-carboxylate] | – | – | 0.025 nM | > 1500 nM
CCOC(=O)c1c[nH]c2ncnc(-c3cccc(Nc4nc(Cl)ns4)c3)c12 [Example 6-1, Ethyl 4-{3-[(3-chloro-1,2,4-thiadiazol-5-yl)amino]phenyl}-7H-pyrrolo[2,3-d]pyrimidine-5-carboxylate] | – | – | 9.2 nM | 109 nM
CCOC(=O)c1c[nH]c2ncnc(-c3cccc(Nc4nccnc4C#N)c3)c12 [Example 6-2, Ethyl-4-{3-[(3-cyanopyrazin-2-yl)amino]phenyl}-7H-pyrrolo[2,3-d]pyrimidine-5-carboxylate] | 10 to 500 nM | > 500 nM | – | –
CCOC(=O)c1c[nH]c2ncnc(-c3cccc(Nc4ncnc(C#N)n4)c3)c12 [Example 6-3, ethyl 4-{3-[(4-cyano-1,3,5-triazin-2-yl)amino]phenyl}-7H-pyrrolo[2,3-d]pyrimidine-5-carboxylate] | 10 to 500 nM | 10 to 500 nM | – | –
CCOC(=O)c1c[nH]c2ncnc(-c3cccc(Nc4nc(C#N)ns4)c3)c12 [Example 6-4, ethyl 4-{3-[(3-cyano-1,2,4-thiadiazol-5-yl)amino]phenyl}-7H-pyrrolo[2,3-d]pyrimidine-5-carboxylate] | 10 to 500 nM | > 500 nM | – | –
CCOC(=O)c1c[nH]c2ncnc(-c3cccc(-c4ccnc(C#N)n4)c3)c12 [Example 7-1, Ethyl 4-(3-(2-cyanopyrimidin-4-yl)phenyl)-7H-pyrrolo[2,3-d]pyrimidine-5-carboxylate] | 10 to 500 nM | > 500 nM | – | –

More lines, now with the values ahead:

IC50 (JAK3; given as range class) | IC50 (JAK2; given as range class) | IC50 (JAK3) | IC50 (JAK2) | SMILES
10 to 500 nM | > 500 nM | – | – | CC/C=C(\C)C(=O)Nc1cccc(-c2ncnc3[nH]cc(C(=O)OCC)c23)c1 [Example 5-25, ethyl 4-(3-{[(2E)-2-methylpent-2-enoyl]amino}phenyl)-7H-pyrrolo[2,3-d]pyrimidine-5-carboxylate]
10 to 500 nM | > 500 nM | – | – | CCOC(=O)c1c[nH]c2ncnc(-c3cccc(NC(=O)/C(F)=C/c4ccccc4)c3)c12 [Example 5-26, ethyl 4-(3-{[(2Z)-2-fluoro-3-phenylprop-2-enoyl]amino}phenyl)-7H-pyrrolo[2,3-d]pyrimidine-5-carboxylate]
10 to 500 nM | > 500 nM | – | – | CCOC(=O)c1c[nH]c2ncnc(-c3cccc(NC(=O)C=C(C)C)c3)c12 [Example 5-27, ethyl 4-{3-[(3-methylbut-2-enoyl)amino]phenyl}-7H-pyrrolo[2,3-d]pyrimidine-5-carboxylate]
10 to 500 nM | > 500 nM | – | – | CCOC(=O)c1c[nH]c2ncnc(-c3cccc(NC(=O)/C=C/c4ccc(OC)cc4)c3)c12 [Example 5-29, ethyl 4-(3-{[(2E)-3-(4-methoxyphenyl)prop-2-enoyl]amino}phenyl)-7H-pyrrolo[2,3-d]pyrimidine-5-carboxylate]
10 to 500 nM | > 500 nM | – | – | CCOC(=O)c1c[nH]c2ncnc(-c3cccc(NC(=O)/C=C/c4cccnc4)c3)c12 [Example 5-30, ethyl 4-(3-{[(2E)-3-pyridin-3-ylprop-2-enoyl]amino}phenyl)-7H-pyrrolo[2,3-d]pyrimidine-5-carboxylate]
10 to 500 nM | > 500 nM | – | – | C/C=C(\C)C(=O)Nc1cccc(-c2ncnc3[nH]cc(C(=O)OCC)c23)c1 [Example 5-31, ethyl 4-(3-{[(2E)-2-methylbut-2-enoyl]aminol}phenyl)-7H-pyrrolo[2,3-d]pyrimidine-5-carboxylate]
10 to 500 nM | > 500 nM | – | – | CCOC(=O)c1c[nH]c2ncnc(-c3cccc(NC(=O)/C=C/c4ccco4)c3)c12 [Example 5-32, ethyl 4-(3-{[(2E)-3-furan-2-ylprop-2-enoyl]amino}phenyl)-7H-pyrrolo[2,3-d]pyrimidine-5-carboxylate]
10 to 500 nM | > 500 nM | – | – | CC/C=C/C(=O)Nc1cccc(-c2ncnc3[nH]cc(C(=O)OCC)c23)c1 [Example 5-33, ethyl 4-{3-[(2E)-pent-2-enoylamino]phenyl}-7H-pyrrolo[2,3-d]pyrimidine-5-carboxylate]
10 to 500 nM | > 500 nM | – | – | CCOC(=O)c1c[nH]c2ncnc(-c3cccc(NC(=O)C4=CCCCC4)c3)c12 [Example 5-35, ethyl 4-{3-[(cyclohex-1-en-1-ylcarbonyl)amino]phenyl}-7H-pyrrolo[2,3-d]pyrimidine-5-carboxylate]
10 to 500 nM | > 500 nM | – | – | CCOC(=O)c1c[nH]c2ncnc(-c3cccc(NC(=O)C=C4CCCC4)c3)c12 [Example 5-37, ethyl 4-{3-[(cyclopentylideneacetyl)amino]phenyl}-7H-pyrrolo[2,3-d]pyrimidine-5-carboxylate]
10 to 500 nM | > 500 nM | – | – | C/C=C(/OC)C(=O)Nc1cccc(-c2ncnc3[nH]cc(C(=O)OCC)c23)c1 [Example 5-38, ethyl 4-(3-{[(2E)-2-methoxybut-2-enoyl]amino}phenyl)-7H-pyrrolo[2,3-d]pyrimidine-5-carboxylate]
10 to 500 nM | > 500 nM | – | – | CCOC(=O)c1c[nH]c2ncnc(-c3cccc(NC(=O)C4=COCC4)c3)c12 [Example 5-40]
10 to 500 nM | > 500 nM | – | – | CCOC(=O)c1c[nH]c2ncnc(-c3cccc(NC(=O)/C=C/C(F)(F)F)c3)c12 [Example 5-42, ethyl 4-(3-{[(2E)-4,4,4-trifluorobut-2-enoyl]amino}phenyl)-7H-pyrrolo[2,3-d]pyrimidine-5-carboxylate]
10 to 500 nM | > 500 nM | – | – | CCOC(=O)c1c[nH]c2ncnc(-c3cccc(NC(=O)/C(C)=C/c4ccccc4)c3)c12 [Example 5-43, ethyl 4-(3-{[(2E)-2-methyl-3-phenylprop-2-enoyl]amino}phenyl)-7H-pyrrolo[2,3-d]pyrimidine-5-carboxylate]
